This test deals with corneal endothelial cell monolayer. The experiment in a line: Corneal endothelial barrier function: CF permeation through cultured corneal endothelial cell monolayer on permeable collagen membrane. The conditions noted are these: result in words; effect grows with increasing concentration of substance (I) in the test solution. It counts as cell-based, male white rabbits. Here is the method:
The eyeballs of male white rabbits were enucleated and in a culture medium prepared by adding 10 % fetal calf serum to Dulbecco's Modified MEM (trademark: Dulbecco's Modified Eagle Medium "Nissui" 2, Nissui Pharmaceutical), (hereinafter referred to as DMEM), the cornea was cut out along the corneosclerai limbus with a pair of scissors. From each of the isolated corneal specimens (8 eyes), the endothelium with Descemet's membrane was peeled off, shorn into small pieces, and seeded with about 5 ml of DMEM in a 75 cm^2 culture flask (trademark: Nunclon Tissue Culture Flask 147589; manufactured by Nunc). After adhesion of the cells to the bottom of the flask, about 20 ml of DMEM was added and the cells were cultured for about 7 days until the growth on the internal wall of the flask became confluent. During this period, the medium was replaced with fresh one every 3 days. After completion of culture, the cells were digested with 5 ml of EDTA- trypsin (a phosphate buffer containing 0.01 % of EDTA and 0.125 % of trypsin and not containing calcium or magnesium ion) and, then, mixed with a sufficient quantity of DMEM to terminate the digestion. The digest was centrifuged at 1000 rpm for 2 minutes and the cells were then collected. The harvested cells were re-suspended in DMEM and filtered through a […] nylon filter to remove Descemet's membrane, leaving an exclusive suspension of cells. […]

These results are taken from patent EP0409999A1, “LIQUID PREPARATION FOR INTRAOCULAR PERFUSION” (Senju Pharmaceutical Co., Ltd., priority 1989, dated 1990).

With `O=C1O[C@H]([C@@H](O)CO)C(O)=C1OP(=O)(O)O` [substance (I)], the “permeation of CF through the cultured corneal endothelial cell monolayer” value is reported as “inhibits the permeation of CF”.
